Results: paper PMC3005334 (Cell, 2010)

Columns and labels:
Ssk22 = molecular target: T1, Ssk22 (Saccharomyces cerevisiae, UniProt P25390); test: Ssk22 protein levels purified from erg4Δ cells with exogenous ergosterol; assay type: cell-based; conditions: erg4Δ mutant strain, exogenous ergosterol added to the medium
T1 sequence (P25390 1-1331): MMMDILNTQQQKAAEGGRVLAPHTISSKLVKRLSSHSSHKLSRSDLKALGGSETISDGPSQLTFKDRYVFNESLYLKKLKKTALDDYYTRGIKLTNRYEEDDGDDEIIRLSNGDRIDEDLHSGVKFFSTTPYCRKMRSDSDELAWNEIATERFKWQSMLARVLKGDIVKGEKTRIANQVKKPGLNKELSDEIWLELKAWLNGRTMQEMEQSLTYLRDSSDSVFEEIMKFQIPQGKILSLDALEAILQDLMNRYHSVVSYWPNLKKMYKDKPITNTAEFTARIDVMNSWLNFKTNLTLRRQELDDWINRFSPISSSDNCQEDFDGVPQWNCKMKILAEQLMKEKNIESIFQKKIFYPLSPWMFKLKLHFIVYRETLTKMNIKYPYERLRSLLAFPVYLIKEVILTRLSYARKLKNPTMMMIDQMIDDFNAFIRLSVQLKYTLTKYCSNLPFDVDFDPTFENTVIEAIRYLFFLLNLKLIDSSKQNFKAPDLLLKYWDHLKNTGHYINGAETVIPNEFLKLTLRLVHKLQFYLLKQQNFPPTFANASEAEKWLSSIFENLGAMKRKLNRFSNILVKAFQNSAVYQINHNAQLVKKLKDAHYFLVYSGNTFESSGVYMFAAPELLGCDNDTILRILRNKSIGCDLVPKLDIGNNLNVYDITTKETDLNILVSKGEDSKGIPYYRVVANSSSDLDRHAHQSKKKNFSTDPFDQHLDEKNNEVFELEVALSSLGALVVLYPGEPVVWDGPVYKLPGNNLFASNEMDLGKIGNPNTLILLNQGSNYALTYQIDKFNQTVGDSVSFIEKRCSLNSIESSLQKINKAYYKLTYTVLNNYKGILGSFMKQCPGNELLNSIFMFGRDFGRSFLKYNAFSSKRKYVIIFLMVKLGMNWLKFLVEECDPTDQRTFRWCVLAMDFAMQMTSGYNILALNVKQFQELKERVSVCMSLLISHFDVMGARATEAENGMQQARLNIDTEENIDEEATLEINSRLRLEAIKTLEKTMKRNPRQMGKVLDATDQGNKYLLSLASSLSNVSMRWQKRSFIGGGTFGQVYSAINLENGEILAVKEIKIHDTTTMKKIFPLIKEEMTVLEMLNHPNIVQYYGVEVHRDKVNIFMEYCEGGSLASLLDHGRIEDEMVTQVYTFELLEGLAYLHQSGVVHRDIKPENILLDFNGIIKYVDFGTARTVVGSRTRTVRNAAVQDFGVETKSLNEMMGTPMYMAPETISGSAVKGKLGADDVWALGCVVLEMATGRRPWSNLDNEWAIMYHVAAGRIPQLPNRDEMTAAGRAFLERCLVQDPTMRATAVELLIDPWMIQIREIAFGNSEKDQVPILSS

Kin4 = molecular target: T2, Kin4 (Saccharomyces cerevisiae, UniProt Q01919); test: Affinity purification of tagged protein kinase and LC-MS of bound metabolites; assay type: binding; conditions: 379.337 amu at 10.98 min
T2 sequence (Q01919 1-800): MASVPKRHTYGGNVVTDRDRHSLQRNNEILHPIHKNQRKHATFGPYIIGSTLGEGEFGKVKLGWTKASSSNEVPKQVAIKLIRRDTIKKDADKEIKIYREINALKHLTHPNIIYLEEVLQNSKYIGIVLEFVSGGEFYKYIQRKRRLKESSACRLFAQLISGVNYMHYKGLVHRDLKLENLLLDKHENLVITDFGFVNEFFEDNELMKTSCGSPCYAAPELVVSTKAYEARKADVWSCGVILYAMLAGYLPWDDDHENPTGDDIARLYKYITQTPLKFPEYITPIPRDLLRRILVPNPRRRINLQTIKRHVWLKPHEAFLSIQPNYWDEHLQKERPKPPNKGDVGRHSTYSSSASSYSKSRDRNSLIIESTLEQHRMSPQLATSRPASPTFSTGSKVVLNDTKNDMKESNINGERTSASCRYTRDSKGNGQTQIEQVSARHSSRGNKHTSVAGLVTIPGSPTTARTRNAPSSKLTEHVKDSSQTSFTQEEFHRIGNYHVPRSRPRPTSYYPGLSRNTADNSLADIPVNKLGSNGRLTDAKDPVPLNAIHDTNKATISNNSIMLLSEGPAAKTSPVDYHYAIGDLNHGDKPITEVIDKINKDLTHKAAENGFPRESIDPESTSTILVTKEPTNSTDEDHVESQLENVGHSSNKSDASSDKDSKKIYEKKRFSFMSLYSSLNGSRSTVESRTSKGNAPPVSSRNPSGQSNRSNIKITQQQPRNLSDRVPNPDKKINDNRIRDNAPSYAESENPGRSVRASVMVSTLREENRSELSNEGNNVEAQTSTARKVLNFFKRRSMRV

Ypk1 = molecular target: T3, Ypk1 (Saccharomyces cerevisiae, UniProt P12688); test: as above; assay type: binding; conditions: identified against pure standards
T3 sequence (P12688 1-680): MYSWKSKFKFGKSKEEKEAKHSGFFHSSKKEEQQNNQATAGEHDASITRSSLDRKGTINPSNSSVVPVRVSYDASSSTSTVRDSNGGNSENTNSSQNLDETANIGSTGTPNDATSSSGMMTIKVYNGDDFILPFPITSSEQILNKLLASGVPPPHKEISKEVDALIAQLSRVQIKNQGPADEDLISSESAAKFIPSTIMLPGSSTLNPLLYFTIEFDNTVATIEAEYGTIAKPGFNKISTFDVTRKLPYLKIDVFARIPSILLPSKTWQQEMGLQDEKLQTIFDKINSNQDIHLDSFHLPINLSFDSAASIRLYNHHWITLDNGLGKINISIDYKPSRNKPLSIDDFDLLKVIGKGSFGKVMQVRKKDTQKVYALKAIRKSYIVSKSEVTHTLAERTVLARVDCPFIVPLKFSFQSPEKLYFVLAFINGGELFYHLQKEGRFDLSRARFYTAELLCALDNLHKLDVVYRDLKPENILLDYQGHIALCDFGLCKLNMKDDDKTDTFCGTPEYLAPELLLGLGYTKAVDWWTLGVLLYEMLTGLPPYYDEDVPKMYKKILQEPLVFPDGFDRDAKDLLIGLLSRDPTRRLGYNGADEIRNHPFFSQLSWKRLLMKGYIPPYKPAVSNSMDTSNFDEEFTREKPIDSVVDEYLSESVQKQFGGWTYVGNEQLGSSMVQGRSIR

CC(C)[C@@H](C)/C=C/[C@@H](C)[C@H]1CC[C@H]2C3=CC=C4C[C@@H](O)CC[C@]4(C)[C@H]3CC[C@]12C [ergosterol]
Ssk22 protein levels (Ssk22): restored Ssk22 levels | binding to Kin4 (Kin4): specific binding | metabolite extracted from Ypk1 (Ypk1): bound metabolite
